# Assay results: paper PMC10485003, “Antibiotic hyper-resistance in a class I aminoacyl-tRNA synthetase with altered active site signature motif” (Nature Communications, 2023)
# Several values for one entry are separate records, joined by “and”; a condition that tells them apart may be missing. Identical values can stand only once. Like-named read-outs stand apart in the source and are kept apart here.
# Experiments:
# ScIleRS2 = details: activation step, absence of tRNA; cited from earlier work
# SgIleRS2 = details: non-canonical motif; cited from earlier work
# IleRS2 = assay: Mupirocin inhibition of IleRS2 compared with IleRS1; type: biochemical, bacteria; details: IleRS1 strongly, IleRS2 modestly inhibited
# wt-ALHH DrIleRS2 = molecular target: T1, wt-ALHH DrIleRS2 (Deinococcus radiodurans, UniProt Q9RUP8); assay: ATP-PPi exchange assay, mupirocin inhibition of amino acid activation; type: biochemical
# T1 construct: hexa-histidine tag (pET28b(+)) (N); made in house; host or cells: E. coli BL21(DE3)
# Description: L-Ile and ATP concentrations ranged from 1/10 KM to 10 KM values. When measuring the KI towards one of the substrates, the other was held in saturation (concentrations at least 10 KM). The aliquots of the reaction mixture (1–2.5 μl) were quenched in 2 volumes of 500 mM NaOAc pH = 4.5, 0.1% SDS, and formed ^32P-ATP was separated from the remaining ^32P-PPi by thin-layer chromatography on Polygram CEL 300 PEI UV254 TLC plates (Macherey-Nagel, cat: 801063) using 750 mM KH2PO4 pH=3.5, 4 M urea buffer. Visualization and quantification of the signals was performed using a Typhoon Phosphoimager 5 (General Electric) and accompanying ImageQuant™ TL software (SV: 10.2). The kinetic constants were determined using a global fit option of the competitive inhibition model of GraphPad Prism 6 software (SV: 6.01). All experiments were performed in triplicates. The kcat was determined by dividing the maximal velocity, VM, with the used enzyme concentration. […]
# variable substrate (ATP or Ile) was varied in the range of 0.1 KM to 10 KM. The other substrate (Ile or ATP) was kept in excess at 5 to 10 KM. Data were globally fitted to the competitive inhibition model using GraphPad prism 6.01 for Windows software. The values represent the average value ± SD of three independent experiments. Source data are provided as a Source Data file.
# T1 sequence (Q9RUP8 whole entry): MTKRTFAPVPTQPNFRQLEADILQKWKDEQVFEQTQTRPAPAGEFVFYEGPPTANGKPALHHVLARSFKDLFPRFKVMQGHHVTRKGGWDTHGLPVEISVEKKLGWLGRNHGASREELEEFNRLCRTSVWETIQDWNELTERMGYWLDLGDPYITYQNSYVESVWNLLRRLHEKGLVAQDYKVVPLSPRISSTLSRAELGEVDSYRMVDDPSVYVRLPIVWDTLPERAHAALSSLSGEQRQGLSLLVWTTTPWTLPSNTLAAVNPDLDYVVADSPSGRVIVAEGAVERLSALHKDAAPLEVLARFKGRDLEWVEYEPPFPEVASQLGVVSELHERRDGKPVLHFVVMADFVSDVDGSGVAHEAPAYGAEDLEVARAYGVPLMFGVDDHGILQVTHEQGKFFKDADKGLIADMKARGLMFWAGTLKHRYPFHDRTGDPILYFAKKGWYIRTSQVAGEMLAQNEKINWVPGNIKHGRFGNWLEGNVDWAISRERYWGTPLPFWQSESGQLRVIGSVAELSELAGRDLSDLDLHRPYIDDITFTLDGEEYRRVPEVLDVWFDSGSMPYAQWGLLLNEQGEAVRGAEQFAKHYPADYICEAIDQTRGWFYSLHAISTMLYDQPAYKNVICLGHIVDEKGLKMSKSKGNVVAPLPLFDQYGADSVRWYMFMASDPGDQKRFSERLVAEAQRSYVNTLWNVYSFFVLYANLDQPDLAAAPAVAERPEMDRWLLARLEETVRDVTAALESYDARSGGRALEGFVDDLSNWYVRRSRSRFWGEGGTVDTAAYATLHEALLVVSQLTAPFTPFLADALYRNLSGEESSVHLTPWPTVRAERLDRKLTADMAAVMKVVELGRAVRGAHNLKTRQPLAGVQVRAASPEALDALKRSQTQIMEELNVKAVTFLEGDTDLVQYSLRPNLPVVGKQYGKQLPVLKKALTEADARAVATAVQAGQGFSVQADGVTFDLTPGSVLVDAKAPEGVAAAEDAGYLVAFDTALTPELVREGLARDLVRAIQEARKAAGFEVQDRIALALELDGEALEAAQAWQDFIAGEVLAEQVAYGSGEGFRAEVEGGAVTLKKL
smiles,measurement,setting,value
C/C(=C\C(=O)OCCCCCCCCC(=O)O)C[C@@H]1OC[C@H](C[C@@H]2O[C@H]2[C@@H](C)[C@H](C)O)[C@@H](O)[C@H]1O [mupirocin],Ki,ScIleRS2,0.0086 mM
same,Ki for mupirocin,SgIleRS2,mM range
same,difference in Ki between IleRS1 and IleRS2,IleRS2,10^3−10^5 fold
same,Ki,"wt-ALHH DrIleRS2; amino acid activation assay, ATP as variable substrate, average ± SD of three independent experiments, read-out: KI (MUP)ATP",7.7 ± 0.4 mM
same,Ki,"wt-ALHH DrIleRS2; amino acid activation step, ATP/PPi exchange assay, Ile varied, ATP saturating, average ± SD of three independent experiments, read-out: KI (MUP)Ile",6.6 ± 0.4 mM
same,mode of inhibition,"wt-ALHH DrIleRS2; amino acid activation step, with respect to both Ile and ATP",classical competitive inhibition
same,initial velocity vo,"wt-ALHH DrIleRS2; c(mupirocin) 2.0 mM, c(Ile) 10.0 μM",0.0067 mM/min and 0.00769 mM/min and 0.00782 mM/min
same,initial velocity vo,"wt-ALHH DrIleRS2; c(mupirocin) 2.0 mM, c(Ile) 20.0 μM",0.01324 mM/min and 0.01288 mM/min and 0.01298 mM/min
same,initial velocity vo,"wt-ALHH DrIleRS2; c(mupirocin) 2.0 mM, c(Ile) 40.0 μM",0.02028 mM/min and 0.02243 mM/min and 0.02046 mM/min
same,initial velocity vo,"wt-ALHH DrIleRS2; c(mupirocin) 5.0 mM, c(ATP) 1.0 mM",0.03528 mM/min and 0.03566 mM/min and 0.03641 mM/min
same,initial velocity vo,"wt-ALHH DrIleRS2; c(mupirocin) 5.0 mM, c(ATP) 2.5 mM",0.04751 mM/min and 0.04951 mM/min and 0.05105 mM/min
same,initial velocity vo,"wt-ALHH DrIleRS2; c(mupirocin) 5.0 mM, c(ATP) 5.0 mM",0.05659 mM/min and 0.05544 mM/min and 0.05848 mM/min
same,initial velocity vo,"wt-ALHH DrIleRS2; c(mupirocin) 5.0 mM, c(ATP) 10.0 mM",0.05987 mM/min and 0.05899 mM/min and 0.06477 mM/min
same,initial velocity vo,"wt-ALHH DrIleRS2; c(mupirocin) 5.0 mM, c(Ile) 10.0 μM",0.00848 mM/min and 0.00805 mM/min and 0.00714 mM/min
same,initial velocity vo,"wt-ALHH DrIleRS2; c(mupirocin) 5.0 mM, c(Ile) 20.0 μM",0.01178 mM/min and 0.01222 mM/min and 0.01149 mM/min
same,initial velocity vo,"wt-ALHH DrIleRS2; c(mupirocin) 5.0 mM, c(Ile) 40.0 μM",0.01921 mM/min and 0.02111 mM/min and 0.01863 mM/min
same,initial velocity vo,"wt-ALHH DrIleRS2; c(mupirocin) 10.0 mM, c(ATP) 1.0 mM",0.02957 mM/min and 0.02811 mM/min and 0.02952 mM/min
same,initial velocity vo,"wt-ALHH DrIleRS2; c(mupirocin) 10.0 mM, c(ATP) 2.5 mM",0.04461 mM/min and 0.04583 mM/min and 0.04572 mM/min
same,initial velocity vo,"wt-ALHH DrIleRS2; c(mupirocin) 10.0 mM, c(ATP) 5.0 mM",0.05427 mM/min and 0.05634 mM/min and 0.05619 mM/min
same,initial velocity vo,"wt-ALHH DrIleRS2; c(mupirocin) 10.0 mM, c(ATP) 10.0 mM",0.06096 mM/min and 0.06226 mM/min and 0.06179 mM/min
same,initial velocity vo,"wt-ALHH DrIleRS2; c(mupirocin) 10.0 mM, c(Ile) 10.0 μM",0.00446 mM/min and 0.00532 mM/min and 0.0043 mM/min
same,initial velocity vo,"wt-ALHH DrIleRS2; c(mupirocin) 10.0 mM, c(Ile) 20.0 μM",0.0078 mM/min and 0.01029 mM/min and 0.0074 mM/min
same,initial velocity vo,"wt-ALHH DrIleRS2; c(mupirocin) 10.0 mM, c(Ile) 40.0 μM",0.01449 mM/min and 0.016 mM/min and 0.01446 mM/min
same,initial velocity vo,"wt-ALHH DrIleRS2; c(mupirocin) 10.0 mM, c(Ile) 80.0 μM",0.02234 mM/min and 0.02409 mM/min and 0.02227 mM/min
same,initial velocity vo,"wt-ALHH DrIleRS2; c(mupirocin) 15.0 mM, c(ATP) 1.0 mM",0.02381 mM/min and 0.02402 mM/min and 0.0242 mM/min
same,initial velocity vo,"wt-ALHH DrIleRS2; c(mupirocin) 15.0 mM, c(ATP) 2.5 mM",0.03988 mM/min and 0.03998 mM/min and 0.04105 mM/min
same,initial velocity vo,"wt-ALHH DrIleRS2; c(mupirocin) 15.0 mM, c(ATP) 5.0 mM",0.05025 mM/min and 0.05034 mM/min and 0.05209 mM/min
same,initial velocity vo,"wt-ALHH DrIleRS2; c(mupirocin) 15.0 mM, c(ATP) 10.0 mM",0.0561 mM/min and 0.05663 mM/min and 0.05737 mM/min
same,initial velocity vo,"wt-ALHH DrIleRS2; c(mupirocin) 20.0 mM, c(ATP) 1.0 mM",0.02027 mM/min and 0.02047 mM/min and 0.01966 mM/min
same,initial velocity vo,"wt-ALHH DrIleRS2; c(mupirocin) 20.0 mM, c(ATP) 2.5 mM",0.03606 mM/min and 0.03686 mM/min and 0.03693 mM/min
same,initial velocity vo,"wt-ALHH DrIleRS2; c(mupirocin) 20.0 mM, c(ATP) 5.0 mM",0.04674 mM/min and 0.0476 mM/min and 0.04884 mM/min
same,initial velocity vo,"wt-ALHH DrIleRS2; c(mupirocin) 20.0 mM, c(ATP) 10.0 mM",0.05461 mM/min and 0.05589 mM/min and 0.05542 mM/min
same,initial velocity vo,"wt-ALHH DrIleRS2; c(mupirocin) 25 mM, c(ATP) 1.0 mM",0.01716 mM/min and 0.01763 mM/min and 0.01741 mM/min
same,initial velocity vo,"wt-ALHH DrIleRS2; c(mupirocin) 25 mM, c(ATP) 2.5 mM",0.03106 mM/min and 0.033 mM/min and 0.02877 mM/min
same,initial velocity vo,"wt-ALHH DrIleRS2; c(mupirocin) 25 mM, c(ATP) 5.0 mM",0.0424 mM/min and 0.04408 mM/min and 0.04201 mM/min
same,initial velocity vo,"wt-ALHH DrIleRS2; c(mupirocin) 25 mM, c(ATP) 10.0 mM",0.05204 mM/min and 0.0507 mM/min and 0.05392 mM/min
same,initial velocity vo,"wt-ALHH DrIleRS2; c(mupirocin) 25.0 mM, c(Ile) 10.0 μM",0.003 mM/min and 0.0032 mM/min and 0.00312 mM/min
same,initial velocity vo,"wt-ALHH DrIleRS2; c(mupirocin) 25.0 mM, c(Ile) 20.0 μM",0.0036 mM/min and 0.0044 mM/min and 0.00399 mM/min
same,initial velocity vo,"wt-ALHH DrIleRS2; c(mupirocin) 25.0 mM, c(Ile) 40.0 μM",0.0074 mM/min and 0.0071 mM/min and 0.00814 mM/min
same,initial velocity vo,"wt-ALHH DrIleRS2; c(mupirocin) 25.0 mM, c(Ile) 80.0 μM",0.0137 mM/min
same,Ki,"wt-ALHH DrIleRS2; mupirocin inhibition towards Ile, GraphPad Prism output, Repl1-Repl3, read-out: KI, single replicates",7.22 mM and 6.75 mM and 5.95 mM
